Experimental data from ChEMBL document CHEMBL1148473, “Sabadinine: a potential non-peptide anti-severe acute-respiratory-syndrome agent identified using structure-aided design” (J Med Chem, 2004).
The source made the active and inactive calls. The calls are words filed in the database; no cut-off is given here.

Assays:
Homo sapiens = species: Homo sapiens; test: Compound was tested for inhibition of a proteinase 3CL pro of human coronavirus; Inhibited
Coronaviridae = test: Evaluated for effect on murine coronavirus replication; No effect; type: functional, organism-based
[1] = system: Murine hepatitis virus strain A59; test: Evaluated for cellular toxicity against mouse hepatitis virus strain A59 up to 100 uM, Not toxic; type: functional, organism-based

In the case of `CC1CCC2N(C1)CC1[C@](O)(C(O)C[C@@]3(O)C4CCC5C6(O)OC4(C[C@@]13O)C5(C)CCC6O)[C@]2(C)O` (stereo partly drawn), the Activity (Homo sapiens) is reported as “Inhibited”, the Activity (Coronaviridae) is reported as “inactive” and the Activity [1] is reported as “Not toxic”.
